Data on 17 molecules can be found in patent publication US12421211B2, “Heterocyclic compounds” (Hoffmann-La Roche Inc., priority 2021, dated 2025).

Each structure is given as a SMILES string. Counter-ions that a name gives are not always drawn.

For the first test, the system named is Acinetobacter baumannii ATCC17961. Kind of test: Antimicrobial susceptibility testing: 90% growth inhibitory concentration (IC90) determination. The conditions noted are these: 90% growth inhibitory concentration, Acinetobacter baumannii ATCC17961, Iso-Sensitest broth, OD 600 nm over 16 h; read-out: ATCC 17961 IC90. Type of test: cell-based. A digest of the protocol: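 Growth inhibition derived in log phase from OD600 kinetics (every 20 minutes, 16h, 35±2° C) of ATCC17961 in Iso-Sensitest medium, inoculum ~5×10^5 CFU/ml. Compounds tested as twofold series, 10 points (e.g. 50 to 0.097 μM final); IC90 and IC50 reported.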
As usually defined, the IC90 is the point of the concentration-response curve where the effect stands at 90%. Regarding `COCCn1cc(-c2ccc(-c3cnc(C(=O)Nc4ccc(C(=O)N5CCN(C(=O)C6[C@H]7C[N+](C)(C)C[C@@H]67)CC5)c(Cl)c4)n3C)c(F)c2F)c(C)n1` (stereo partly drawn) [Example B25, N-[3-chloro-4-[4-[(1R,5S)-3,3-dimethyl-3-azoniabicyclo[3.10]hexane-6-carbonyl]piperazine-1-carbonyl]phenyl]-5-[2,3-difluoro-4-[1-(2-methoxyethyl)-3-methyl-pyrazol-4-yl]phenyl]-1-methyl-imidazole-2-carboxamide; formate], the IC90 amounted to 0.27 µM. Turning to `Cc1nn(CC(=O)Nc2ccc(F)nn2)cc1-c1ccc(-c2cnc(C(=O)Nc3ccc(C(=O)N4CCN(C(=O)C5CC[N+](CC(=O)O)(CC6CNC6)CC5)CC4)c(Cl)c3)n2C)c(F)c1F` (stereo not drawn) [Example L6, cis 2-[1-(azetidin-3-ylmethyl)-4-[4-[2-chloro-4-[[5-[2,3-difluoro-4-[1-[2-[(6-fluoropyridazin-3-yl)aminol-2-oxo-ethyl]-3-methyl-pyrazol-4-yl]phenyl]-methyl-imidazole-2-carbonyl]amino]benzoyl]piperazine-1-carbonyl]piperidin-1-ium-1-yl]acetic acid; formate], the concentration for an effect of 90% (IC90) came out at 0.197 µM.

The same test, now with this note: Acinetobacter baumannii, ATCC17961, 16 h, 90% growth inhibitory concentration, Acinetobacter baumannii ATCC17961, Iso-Sensitest broth, OD 600 nm over 16 h; read-out: ATCC 17961 IC90.
Consider `COCCn1ncc(-c2ccc(-c3cnc(C(=O)Nc4ccc(C(=O)N5CCN(C(=O)CCCC(=O)N6CC[N+](CC(=O)O)(CC7CNC7)CC6)CC5)c(Cl)c4)n3C)c(F)c2F)c1C` [Example P6, 2-[1-(azetidin-3-ylmethyl)-4-[5-[4-[2-chloro-4-[[5-[2,3-difluoro-4-[1-(2-methoxyethyl)-5-methyl-pyrazol-4-yl]phenyl]-1-methyl-imidazole-2-carbonyl]amino]benzoyl]piperazino]-5-keto-pentanoyl]piperazin-1-ium-1-yl]acetic acid; 1:1 formate], for which the IC90 was found to be 0.31 µM. On the same count and under the same terms, in the case of `Cc1nn(CCNC(=O)c2ccccn2)cc1-c1ccc(-c2cnc(C(=O)Nc3ccc(C(=O)N4CCN(C(=O)C5CC[N+](C)(C)CC5)CC4)c(Cl)c3)n2C)c(F)c1F` [Example H2, N-[2-[4-[4-[2-[[3-chloro-4-[4-(1,1-dimethylpiperidin-1-ium-4-carbonyl)piperazine-1-carbonyl]phenyl]carbamoyl]-3-methyl-imidazol-4-yl]-2,3-difluoro-phenyl]-3-methyl-pyrazol-1-yl]ethyl]pyridine-2-carboxamide; formate] it was 0.19 µM; in that of `Cn1c(-c2ccc(-c3c[nH]nc3C(F)(F)F)c(F)c2)cnc1C(=O)Nc1ccc(C(=O)N2CCN(C(=O)C3CCN(CC(N)=O)CC3)CC2)c(Cl)c1` [Example E12, N-[4-[4-[1-(2-amino-2-oxo-ethyl)piperidine-4-carbonyl]piperazine-1-carbonyl]-3-chloro-phenyl]-5-[3-fluoro-4-[3-(trifluoromethyl)-1H-pyrazol-4-yl]phenyl]-1-methyl-imidazole-2-carboxamide; 2,2,2-trifluoroacetic acid], 0.15 µM. In the case of `Cc1nn(CC(=O)Nc2ccc(F)cc2)cc1-c1ccc(-c2cnc(C(=O)Nc3ccc(C(=O)N4CCN(C(=O)C5CC[N+](C)(C)CC5)CC4)c(Cl)c3)n2C)c(F)c1F` [Example G8, N-[3-chloro-4-[4-(1,1-dimethylpiperidin-1-ium-4-carbonyl)piperazine-1-carbonyl]phenyl]-5-[2,3-difluoro-4-[1-[2-(4-fluoroanilino)-2-oxo-ethyl]-3-methyl-pyrazol-4-yl]phenyl]-1-methyl-imidazole-2-carboxamide; formate], the concentration for an effect of 90% (IC90) came out at 0.084 µM. Take `COCCn1ncc(-c2ccc(-c3cnc(C(=O)Nc4ccc(C(=O)N5CCN(C(=O)C6CC[N+](C)(C)CC6)CC5)c(Cl)c4)n3C)c(Cl)c2)c1C` [Example F22, N-[3-chloro-4-[4-(1,1-dimethylpiperidin-1-ium-4-carbonyl)piperazine-1-carbonyl]phenyl]-5-[2-chloro-4-[1-(2-methoxyethyl)-5-methyl-pyrazol-4-yl]phenyl]-1-methyl-imidazole-2-carboxamide; formate]: the IC90 came out at 0.17 µM.

Regarding `Cc1n[nH]cc1-c1ccc(-c2cnc(C(=O)Nc3ccc(C(=O)N4CCN(C(=O)C5CCNCC5)CC4)c(Cl)c3)n2C)c(F)c1F` [Example E19, N-[3-chloro-4-[4-(piperidine-4-carbonyl)piperazine-1-carbonyl]phenyl]-5-[2,3-difluoro-4-(3-methyl-1H-pyrazol-4-yl)phenyl]-1-methyl-imidazole-2-carboxamide], the IC90 turned out to be 0.13 µM. For the molecule `COCCn1ncc(-c2ccc(-c3cnc(C(=O)Nc4ccc(C(=O)N5CCC(NS(=O)(=O)C6CC[N+](C)(C)CC6)CC5)c(Cl)c4)n3C)c(F)c2F)c1C` [Example D37, N-[3-chloro-4-[4-[(1,1-dimethylpiperidin-1-ium-4-yl)sulfonylamino]piperidine-1-carbonyl]phenyl]-5-[2,3-difluoro-4-[1-(2-methoxyethyl)-5-methyl-pyrazol-4-yl]phenyl]-1-methyl-imidazole-2-carboxamide; formate], the IC90 amounted to 0.15 µM. `Cc1nn(CC(=O)NC23CC(C2)C3)cc1-c1ccc(-c2cnc(C(=O)Nc3ccc(C(=O)N4CCN(C(=O)C5CC[N+](C)(C)CC5)CC4)c(Cl)c3)n2C)c(F)c1F` [Example G3, 5-[4-[1-[2-(1-bicyclo[1.1.1]pentanylamino)-2-oxo-ethyl]-3-methyl-pyrazol-4-yl]-2,3-difluoro-phenyl]-N-[3-chloro-4-[4-(1,1-dimethylpiperidin-1-ium-4-carbonyl)piperazine-1-carbonyl]phenyl]-1-methyl-imidazole-2-carboxamide; formate]: the IC90 worked out at 0.1 µM. As to `Cc1nn(CC(=O)Nc2cccc(F)c2)cc1-c1ccc(-c2cnc(C(=O)Nc3ccc(C(=O)N4CCN(C(=O)C5CC[N+](C)(C)CC5)CC4)c(Cl)c3)n2C)c(F)c1F` [Example G13, N-[3-chloro-4-[4-(1,1-dimethylpiperidin-1-ium-4-carbonyl)piperazine-1-carbonyl]phenyl]-5-[2,3-difluoro-4-[1-[2-(3-fluoroanilino)-2-oxo-ethyl]-3-methyl-pyrazol-4-yl]phenyl]-1-methyl-imidazole-2-carboxamide; chloride], the concentration for an effect of 90% (IC90) was 0.13 µM.

In the case of `Cc1nn(CC(=O)Nc2ccccc2F)cc1-c1ccc(-c2cnc(C(=O)Nc3ccc(C(=O)N4CCN(C(=O)C5CC[N+](C)(C)CC5)CC4)c(Cl)c3)n2C)c(F)c1F` [Example G6, N-[3-chloro-4-[4-(1,1-dimethylpiperidin-1-ium-4-carbonyl)piperazine-1-carbonyl]phenyl]-5-[2,3-difluoro-4-[1-[2-(2-fluoroanilino)-2-oxo-ethyl]-3-methyl-pyrazol-4-yl]phenyl]-1-methyl-imidazole-2-carboxamide; formate], the IC90 came out at 0.14 µM.

In the case of `COCCCn1cc(-c2ccc(-c3cnc(C(=O)Nc4ccc(C(=O)N5CCN(C(=O)[C@@H]6C[C@@H](O)C[N+]6(C)C)CC5)c(Cl)c4)n3C)c(F)c2F)c(C)n1` [Example D11, N-[3-chloro-4-[4-[(2S,4R)-4-hydroxy-1,1-dimethyl-pyrrolidin-1-ium-2-carbonyl]piperazine-1-carbonyl]phenyl]-5-[2,3-difluoro-4-[1-(3-methoxypropyl)-3-methyl-pyrazol-4-yl]phenyl]-1-methyl-imidazole-2-carboxamide; formate], the IC90 turned out to be 0.27 µM. Take `COCCn1cc(-c2ccc(-c3cnc(C(=O)Nc4ccc(C(=O)N5CCN(C(=O)[C@@H]6[C@@H](O)CC[N+]6(C)C)CC5)c(Cl)c4)n3C)c(F)c2F)c(C)n1` [Example D1, N-[3-chloro-4-[4-[(2S,3S)-3-hydroxy-1,1-dimethyl-pyrrolidin-1-ium-2-carbonyl]piperazine-1-carbonyl]phenyl]-5-[2,3-difluoro-4-[1l-(2-methoxyethyl)-3-methyl-pyrazol-4-yl]phenyl]-1-methyl-imidazole-2-carboxamide; formate]: the IC90 was found to be 0.28 µM. On to `COCCn1cc(-c2ccc(-c3cnc(C(=O)Nc4ccc(C(=O)N5CCN(C(=O)C6CC[N+](C)(C)CC6)CC5)c(Cl)c4)n3C)c(F)c2F)c(C(F)(F)F)n1` [Example F36, N-[3-chloro-4-[4-(1,1-dimethylpiperidin-1-ium-4-carbonyl)piperazine-1-carbonyl]phenyl]-5-[2,3-difluoro-4-[1-(2-methoxyethyl)-3-(trifluoromethyl)pyrazol-4-yl]phenyl]-1-methyl-imidazole-2-carboxamide; formate], for which the IC90 amounted to 0.58 µM.

Staying with this test, now noted: Acinetobacter baumannii, ATCC17961, 16 h, read-out: ATCC 17961 IC90.
Turning to `COCCn1cc(-c2ccc(-c3cnc(C(=O)Nc4ccc(C(=O)N5CCN(C(=O)C6CC[N+]7(CCNC(=O)C7)CC6)CC5)c(Cl)c4)n3C)c(F)c2F)c(C)n1` (centres unmarked) [Example Q1, N-[3-chloro-4-[4-(4-oxo-3-aza-6-azoniaspiro[5.5]undecane-9-carbonyl)piperazine-1-carbonyl]phenyl]-5-[2,3-difluoro-4-[1-(2-methoxyethyl)-3-methyl-pyrazol-4-yl]phenyl]-1-methyl-imidazole-2-carboxamide; 2,2,2-trifluoroacetate], the IC90 came to 0.165 µM. For `COCCn1cc(-c2ccc(-c3cnc(C(=O)Nc4ccc(C(=O)N5CCN(C(=O)[C@H]6CC[N@@+](CC(=O)O)(CC7CNC7)CC6)CC5)c(Cl)c4)n3C)c(F)c2F)c(C)n1` [Example Q3, trans 2-[1-(azetidin-3-ylmethyl)-4-[4-[2-chloro-4-[[5-[2,3-difluoro-4-[1-(2-methoxyethyl)-3-methyl-pyrazol-4-yl]phenyl]-1-methyl-imidazole-2-carbonyl]amino]benzoyl]piperazine-1-carbonyl]piperidin-1-ium-1-yl]acetic acid; formate], the IC90 was determined as 0.359 µM.
